Reference: article PMC12419922, “Myristoylated Cathelicidin-DM Fused With ANG1-7: A Novel Self-Assembling Antimicrobial Peptide for the Treatment and Mechanism of Diabetic Infected Wounds” (Journal of Diabetes Research, 2025)
Where two headings read alike, the source gives them in different places. Where no end group is shown, it is not given here. The star is where a group is joined. Myristoyl = CCCCCCCCCCCCCC(=O)*

Columns and labels:
[1] = TEM of self-assembled structures; type: physicochemical; conditions: 32 μg/mL, deionized water, 1.5% PTA negative stain
Method: The self-assembly morphology of peptide amphiphiles in water was observed using TEM. Each sample was mounted on a 300-mesh copper-coated carbon grid and then negatively stained with a 1.5% phosphotungstic acid solution (1.5% PTA). Before imaging, all samples were air-dried for approximately 10 min. Finally, the samples were characterized under an acceleration voltage of 80 kV.

[2] = test system: HUVECs; assay: ELISA of IL-6 and TNF-α in culture supernatant; type: cell-based, human; conditions: HG + LPS 24 h
Method: The HUVECs were seeded at 1 × 10^4 cells/well and cultured in 96-well plates. Following the indicated treatments, the levels of IL-6 and TNF-α in culture media were analyzed using ELISA according to the method of the kit. The experiments were repeated three times.

[3] = test system: E. coli biofilms; assay: Antibiofilm activity, crystal violet staining and colony counting; type: cell-based, Escherichia coli; conditions: different concentrations, 37°C, 24 h, crystal violet OD 595 nm and viable count
Method: E. coli (ATCC 25922) and S. aureus (ATCC 25923) were cultured overnight in MHB medium at 37°C. The bacterial suspension was diluted to 100 times and added to a 12-well plate (500 μL/well). Each peptide with a different concentration was added to the corresponding well plate and incubated at 37°C for 24 h. After incubation, 100 μL of culture supernatant was discarded. The biofilm was fixed with 100 μL of 100% methanol for 15 min, then air-dried, then dyed with 0.1% crystal violet (CV) for 30 mins, and washed with distilled water three times. After adding 200 μL of 95% ethanol, the inhibition rate of the biofilm was calculated by measuring the OD value at 595 nm with Infinite M200 PRO, Switzerland. After ultrasonic treatment, the biofilm was fully dispersed into single cells, and the cell suspension was diluted to a suitable concentration for colony counting. All experiments were repeated three times.
The formation of bacterial biofilms in the wounds of DFU patients is the main cause of bacterial resistance. By measuring the antibiofilm ability, the inhibitory and clearing effects of drugs on biofilms can be assessed. In the case of preventing biofilm formation, E. coli and S. aureus were cultured in LB nutrient medium with different concentrations of the novel AMP MYR-DM-ANG1-7 in 24-well plates at 37°C and incubate for 24 h. […]

[4] = test system: mouse red blood cell suspension; conditions: 37°C, 60 min, OD 590 nm, 0.1% Triton X-100 positive control
Method: In order to evaluate the hemolytic activity of self-assembled peptides on normal mammalian cells, fresh blood of normal mice was collected, and heparin sodium was anticoagulated and stored. After centrifugation at 4°C and 3000 rpm for 10 min, the precipitate was collected, washed, and centrifuged with normal saline for three times and then resuspended at 10% (v/v). We mix 100 μL of different concentrations of drugs with 100 μL of mouse red blood cell suspension, incubate in a constant temperature oscillation incubator at 37°C for 60 min, then take out and centrifuge according to the above setting, absorb 100 μL of supernatant, put it in a 96-well cell culture plate, and measure the OD value at 590 nm by M200 full-band enzyme-labeled instrument (Infinite M200 Pro, Switzerland). Then, 100 μL of 0.1% Triton X-100 solution was used as a positive control and PBS as a negative control. According to the formula, hemolysis (%) = (experimental group OD value − negative control OD value)/(positive control OD value − negative control OD value) × 100%.

[5] = test system: HUVECs; assay: Reactive oxygen species, DCFH-DA flow cytometry; type: cell-based, human; conditions: 20 μg/mL, compared with the HG + LPS group, p < 0.01
Method: To evaluate the antioxidant activity of MYR-DM-ANG1-7, HUVECs were cultured in DMEM supplemented with 10% FBS at 37°C and 5% CO2. After serum starvation for 24 h, the cells were divided into […] experimental groups: normal control group, high glucose + LPS, high glucose + DM group, and high glucose + MYR-DM-ANG1-7. After drug treatment, the cells were washed three times with ice-cold PBS and incubated with 10 μM DCFH-DA probe in serum-free medium at 37°C in the dark for 20 min. After removing the probe with PBS, the fluorescence intensity of 10,000 live cells was immediately measured by flow cytometry (excitation: 488 nm and emission: 530/30 nm). The data were expressed as the geometric mean fluorescence intensity (MFI) of each sample.

[6] = test system: HUVECs; assay: Tube formation (angiogenesis) on Matrigel; type: cell-based, human; conditions: 9 h, n = 3
Method: The formation of vascular structure was observed by matrix glue experiment, and the angiogenesis ability was evaluated in Matrigel stent (Corning, New York). After treatment in each group, 300 μL (2 × 10^5 cells/mL) HUVECs were digested and inoculated into a 24-well plate containing Matrigel scaffold. After 9 h, the formation image of the tube was photographed.

[7] = test system: human skin fibroblasts (HSFs); conditions: 1.56 μg/mL (lowest concentration), 24 h, CCK8
Method: (§1) Human keratinocyte cells (HaCaTs) and human skin fibroblasts (HSFs) were seeded in 96-well plates at a density of 5000 cells per well. After overnight culture, different concentrations of AMP MYR-DM-ANG1-7 were added to the cells, and then, the cells were cultured for 24 h. Untreated cells were supplemented with fresh culture medium as the control group. Subsequently, 10% by volume of CCK8 solution (5 mg/mL) was added to each well.
(§2) After incubation for 1 h, the absorbance in each well was measured at 450 nm using an M200 full-band microplate reader (Infinite M200 PRO, Switzerland). Finally, the cell viability was calculated relative to the control groups.

[8] = test system: Human keratinocyte cells (HaCaTs); conditions: 50 μg/mL (highest concentration), 24 h, CCK8
Method: as §1, §2

[9] = test system: PI3K/AKT/eNOS signaling pathway, MasR in HUVECs; assay: Western blot of PI3K/AKT/eNOS signaling pathway and MasR; type: cell-based, human
Method: After the specified treatments, HUVECs were harvested using a cell scraper and lysed in cell lysis buffer (Wuhan Boster Biological Engineering Co., Ltd.) for 30 min at 4°C. Total protein was quantified using a BCA protein assay kit. Lysate (20 μg) from each sample was separated by 10% sodium dodecyl sulfate–polyacrylamide gel electrophoresis (SDS-PAGE) and then transferred to a polyvinylidene fluoride (PVDF) membrane. The membrane was blocked with a fresh blocking buffer containing 5% skim milk in Tris-buffered saline with 0.1% Tween 20 (TBS-T) for 2 h at room temperature and then incubated with primary antibodies against AKT (1:1000 dilution, #4691, Cell Signaling Technology), p-AKT (1:2000 dilution, #4060, Cell Signaling Technology), PI3K (1:1000 dilution, ab191606, Abcam), p-PI3K (1:1000 dilution, ab278545, Abcam), eNOS (1:1000 dilution, #32027, Cell Signaling Technology), p-eNOS (1:1000 dilution, ab215717, Abcam), and Mas (1:1000 dilution, #85003-1-RR, Proteintech) overnight at 4°C with shaking. The membrane was washed with TBS-T for 15 min and then incubated with horseradish peroxidase (HRP)–conjugated goat anti-rabbit secondary antibody (Wuhan Sanying Biotechnology Co., Ltd.) at a 1:2000 dilution in TBS-T and 3% skim milk for 90 min at room temperature. The membrane was washed three times with TBS-T, each for 15 min, and the immune reaction signals were detected using an ECL detection method. Protein bands were detected using a chemiluminescent gel imaging system (Bio-Rad Lab, China). Protein expression was quantitatively analyzed using ImageJ software (National Institutes of Health, Bethesda, MD, United States), and the experiment was repeated three times.

Myristoyl-SSRRKPCKGWLCKLKLRGGYTLIGSATNLNRPTYVRAGGGDRVYIHP (cysteines drawn unpaired) [MYR-DM-ANG1-7]
particle size of micelles [1]: 22.38 ± 1.63 nm | TNF-α level [2]: alleviate the decrease | formation of E. coli biofilms [3]: effectively inhibit | hemolysis rate of red blood cells ([4]; 128 μg/mL): 6.01% | hemolysis rate of red blood cells ([4]; 8-64 μg/mL): less than 5% | reduction of intracellular reactive oxygen species level [5]: approximately 32% | main connections of formed blood vessels ([6]; HG + LPS (HG + LPS group 0.3 times)): 1.9 times | length of formed blood vessels ([6]; HG + LPS (HG + LPS group 0.4 times)): 1.7 times | cell survival rate, HSF [7]: 95.16% | cell survival rate, HaCaT [8]: 92.4% | expression of membrane receptor MasR ([9]; after HG treatment and drug treatment): significantly increased | phosphorylation level of eNOS ([9]; pretreatment then HG + LPS): increased | phosphorylation level of AKT (p-AKT/total AKT) ([9]; pretreatment then HG + LPS (HG + LPS 0.4-fold), n = 3): 0.94 fold | phosphorylation level of PI3K (p-PI3K/total PI3K) ([9]; pretreatment then HG + LPS (HG + LPS 0.8-fold), n = 3): 1.28 fold
